Marks after values point to notes of the source that are not given here.
Assay: True protein content of produced milk in sorbitol feeding trials
Format: in vivo, Holstein cows
Conditions: for True Protein in Produced Milk: Pre-Partum Trial #1 (75/0/0 g/day in wk −3..−1/+1..+4/+5..+8)
Procedure: To determine the percent of total protein, wet basis, in a sample, the actual weight of total protein is determined in accordance with Method #991.20 (33.2.11) of Official Methods of Analysis, Association of Official Analytical Chemists (AOAC) (16th Ed., 1995). The value determined by the above method yields “total Kjeldahl nitrogen,” which is equivalent to “total protein” since the above method incorporates a factor that accounts for the average amount of nitrogen in protein. Since any and all total Kjeldahl nitrogen determinations presented herein are based on the above method, the terms “total Kjeldahl nitrogen” and “total protein” are used interchangeably herein. Furthermore, those skilled in the art will recognize that the term “total Kjeldahl nitrogen” is generally used in the art to mean “total protein” with the understanding that the factor has been applied. The weight percent total protein, wet basis, is calculated by dividing the actual weight of total protein by the actual weight of the sample. The weight percent of true protein, wet basis, for a particular sample is calculated after first determining the wet basis weight percent of total Kjeldahl nitrogen and the wet basis weight percent of non-protein nitrogen in the sample. The wet basis weight percent of total Kjeldahl nitrogen in the sample is determined using the method referenced above. The wet basis weight percent of non-protein nitrogen (NPN) in the sample is determined in accordance with Method #991.21 (33.2.12) of Official Methods of Analysis, Association of Official Analytical Chemists (AOAC) (16th Ed., 1995). The weight percent of true protein, wet basis, in the sample is then determined by subtracting the wet basis weight percent of non-protein nitrogen in the sample from the wet basis weight percent of total Kjeldahl nitrogen in the sample. Each cow of each of the six different trials (Control Trial #1, Control Trial #2, Pre-Partum Trial #1, Pre-Partum Trial #2, Pre/Post Trial #1, and Pre/Post Trial #2) was milked three times daily and the weight of produced milk by each cow was recorded at each milking. The milk from each cow was sampled once per week (⅓ of the sample volume from each of the three milkings occurring on the weekly milk sampling day) and was analyzed for true protein, total fat, lactose, and total solids, as detailed in the property determination and characterization techniques presented above. Additionally, samples of blood were periodically obtained from each cow during the four trials (Control Trial 2, Pre-Partum Trial #2, Pre/Post Trial #1, and Pre/Post Trial #2) encompassed in Example Two and were analyzed for non-esterified fatty acid (NEFA) content as detailed in the property determination and characterization techniques presented above. No NEFA analysis was conducted on the cows employed in Control Trial #1 or Pre-Partum Trial #1 that are the subject of Example One. Example One includes Control Trial #1 and Pre-Partum Trial #1. Both primiparious cows and multiparious cows were included in Control Trial #1 and Pre-Partum Trial #1. Five primiparious cows and fifteen multiparious cows were included in Control Trial #1; likewise, five primiparious cows and fifteen multiparious cows were included in Pre-Partum Trial #1. All cows included in Control Trial #1 and Pre-Partum Trial #1 were Holsteins. Example Two includes Control Trial #2, Pre-Partum Trial #2, Pre/Post Trial #1, and Pre/Post Trial #2. Only multiparious, Holstein cows were included in Control Trial #2, Pre-Partum Trial #1, Pre/Post Trial #1, and Pre/Post Trial #2. Eighteen multiparious cows were included in both Control Trial #2 and Pre-Partum Trial #2, while sixteen multiparious cows were included in Pre/Post Trial #1 and seventeen multiparious cows were included in Pre/Post Trial #2.

## OC[C@@H](O)[C@@H](O)[C@H](O)[C@@H](O)CO [sorbitol]
Multiparious cows, weeks +1 through +8
  True Protein in Produced Milk: 2.82 wt %
Primiparious cows, weeks +1 through +8
  True Protein in Produced Milk: 2.9 wt %
Pre-Partum Trial #1 (75 g/day wk −3..−1 only) versus Control Trial #1, primiparious cows, weeks +1 through +8
  increase in true protein concentration in the produced milk: 7.4%
Pre-Partum Trial #2 (75/0/100 g/day in wk −3..−1/+1..+4/+5..+8), multiparious cows, week +1
  True Protein Content of Produced Milk: 3.95 weight %
Pre-Partum Trial #2 (75/0/100 g/day in wk −3..−1/+1..+4/+5..+8), multiparious cows, week +2
  True Protein Content of Produced Milk: 3.14 weight %
Pre-Partum Trial #2 (75/0/100 g/day in wk −3..−1/+1..+4/+5..+8), multiparious cows, week +3
  True Protein Content of Produced Milk: 2.81 weight %
Pre-Partum Trial #2 (75/0/100 g/day in wk −3..−1/+1..+4/+5..+8), multiparious cows, week +4
  True Protein Content of Produced Milk: 2.71^ab weight %
Pre-Partum Trial #2 (75/0/100 g/day in wk −3..−1/+1..+4/+5..+8), multiparious cows, week +5
  True Protein Content of Produced Milk: 2.63 weight %
Pre-Partum Trial #2 (75/0/100 g/day in wk −3..−1/+1..+4/+5..+8), multiparious cows, week +6
  True Protein Content of Produced Milk: 2.62 weight %
Pre-Partum Trial #2 (75/0/100 g/day in wk −3..−1/+1..+4/+5..+8), multiparious cows, week +7
  True Protein Content of Produced Milk: 2.60 weight %
Pre-Partum Trial #2 (75/0/100 g/day in wk −3..−1/+1..+4/+5..+8), multiparious cows, week +8
  True Protein Content of Produced Milk: 2.56 weight %
Pre-Partum Trial #2 (75/0/100 g/day in wk −3..−1/+1..+4/+5..+8), multiparious cows, weeks +1 through +4
  True Protein Content of Produced Milk: 3.11 weight %
Pre-Partum Trial #2 (75/0/100 g/day in wk −3..−1/+1..+4/+5..+8), multiparious cows, weeks +1 through +8
  True Protein Content of Produced Milk: 2.86 weight %
Pre-Partum Trial #2 (75/0/100 g/day in wk −3..−1/+1..+4/+5..+8), multiparious cows, weeks +5 through +8
  True Protein Content of Produced Milk: 2.60 weight %
Pre/Post Trial #1 (150/125/100 g/day in wk −3..−1/+1..+4/+5..+8), multiparious cows, week +1
  True Protein Content of Produced Milk: 4.01 weight %
Pre/Post Trial #1 (150/125/100 g/day in wk −3..−1/+1..+4/+5..+8), multiparious cows, week +1, two-trial comparison with Control Trial #2 (Table 24)
  True Protein Content of Produced Milk: 4.01 weight %
Pre/Post Trial #1 (150/125/100 g/day in wk −3..−1/+1..+4/+5..+8), multiparious cows, week +2
  True Protein Content of Produced Milk: 3.17 weight %
Pre/Post Trial #1 (150/125/100 g/day in wk −3..−1/+1..+4/+5..+8), multiparious cows, week +2, two-trial comparison with Control Trial #2 (Table 24)
  True Protein Content of Produced Milk: 3.17 weight %
Pre/Post Trial #1 (150/125/100 g/day in wk −3..−1/+1..+4/+5..+8), multiparious cows, week +3
  True Protein Content of Produced Milk: 2.85 weight %
Pre/Post Trial #1 (150/125/100 g/day in wk −3..−1/+1..+4/+5..+8), multiparious cows, week +3, two-trial comparison with Control Trial #2 (Table 24)
  True Protein Content of Produced Milk: 2.85 weight %
Pre/Post Trial #1 (150/125/100 g/day in wk −3..−1/+1..+4/+5..+8), multiparious cows, week +4
  True Protein Content of Produced Milk: 2.73^ab weight %
Pre/Post Trial #1 (150/125/100 g/day in wk −3..−1/+1..+4/+5..+8), multiparious cows, week +4, two-trial comparison with Control Trial #2 (Table 24)
  True Protein Content of Produced Milk: 2.73 weight %
Pre/Post Trial #1 (150/125/100 g/day in wk −3..−1/+1..+4/+5..+8), multiparious cows, week +5
  True Protein Content of Produced Milk: 2.65 weight %
Pre/Post Trial #1 (150/125/100 g/day in wk −3..−1/+1..+4/+5..+8), multiparious cows, week +5, two-trial comparison with Control Trial #2 (Table 24)
  True Protein Content of Produced Milk: 2.65 weight %
Pre/Post Trial #1 (150/125/100 g/day in wk −3..−1/+1..+4/+5..+8), multiparious cows, week +6
  True Protein Content of Produced Milk: 2.61 weight %
Pre/Post Trial #1 (150/125/100 g/day in wk −3..−1/+1..+4/+5..+8), multiparious cows, week +6, two-trial comparison with Control Trial #2 (Table 24)
  True Protein Content of Produced Milk: 2.61 weight %
Pre/Post Trial #1 (150/125/100 g/day in wk −3..−1/+1..+4/+5..+8), multiparious cows, week +7
  True Protein Content of Produced Milk: 2.57 weight %
Pre/Post Trial #1 (150/125/100 g/day in wk −3..−1/+1..+4/+5..+8), multiparious cows, week +7, two-trial comparison with Control Trial #2 (Table 24)
  True Protein Content of Produced Milk: 2.57 weight %
Pre/Post Trial #1 (150/125/100 g/day in wk −3..−1/+1..+4/+5..+8), multiparious cows, week +8
  True Protein Content of Produced Milk: 2.65 weight %
Pre/Post Trial #1 (150/125/100 g/day in wk −3..−1/+1..+4/+5..+8), multiparious cows, week +8, two-trial comparison with Control Trial #2 (Table 24)
  True Protein Content of Produced Milk: 2.65 weight %
Pre/Post Trial #1 (150/125/100 g/day in wk −3..−1/+1..+4/+5..+8), multiparious cows, weeks +1 through +4
  True Protein Content of Produced Milk: 3.18 weight %
Pre/Post Trial #1 (150/125/100 g/day in wk −3..−1/+1..+4/+5..+8), multiparious cows, weeks +1 through +4, two-trial comparison with Control Trial #2 (Table 24)
  True Protein Content of Produced Milk: 3.18 weight %
Pre/Post Trial #1 (150/125/100 g/day in wk −3..−1/+1..+4/+5..+8), multiparious cows, weeks +1 through +8
  True Protein Content of Produced Milk: 2.90 weight %
Pre/Post Trial #1 (150/125/100 g/day in wk −3..−1/+1..+4/+5..+8), multiparious cows, weeks +1 through +8, two-trial comparison with Control Trial #2 (Table 24)
  True Protein Content of Produced Milk: 2.90 weight %
Pre/Post Trial #1 (150/125/100 g/day in wk −3..−1/+1..+4/+5..+8), multiparious cows, weeks +5 through +8
  True Protein Content of Produced Milk: 2.62 weight %
Pre/Post Trial #1 (150/125/100 g/day in wk −3..−1/+1..+4/+5..+8), multiparious cows, weeks +5 through +8, two-trial comparison with Control Trial #2 (Table 24)
  True Protein Content of Produced Milk: 2.62 weight %
Pre/Post Trial #1 (150/125/100 g/day) versus Control Trial #2, multiparious cows, weeks +1 through +4 (Table 24)
  increase in true protein concentration in milk: 4.6%
Pre/Post Trial #1 (150/125/100 g/day) versus Control Trial #2, multiparious cows, weeks +1 through +8 (Table 24)
  increase in true protein concentration in milk: 2.8%
Pre/Post Trial #2 (75/75/100 g/day in wk −3..−1/+1..+4/+5..+8), multiparious cows, week +1
  True Protein Content of Produced Milk: 3.96 weight %
Pre/Post Trial #2 (75/75/100 g/day in wk −3..−1/+1..+4/+5..+8), multiparious cows, week +2
  True Protein Content of Produced Milk: 3.13 weight %
Pre/Post Trial #2 (75/75/100 g/day in wk −3..−1/+1..+4/+5..+8), multiparious cows, week +3
  True Protein Content of Produced Milk: 2.89 weight %
Pre/Post Trial #2 (75/75/100 g/day in wk −3..−1/+1..+4/+5..+8), multiparious cows, week +4
  True Protein Content of Produced Milk: 2.77^b weight %
Pre/Post Trial #2 (75/75/100 g/day in wk −3..−1/+1..+4/+5..+8), multiparious cows, week +5
  True Protein Content of Produced Milk: 2.70 weight %
Pre/Post Trial #2 (75/75/100 g/day in wk −3..−1/+1..+4/+5..+8), multiparious cows, week +6
  True Protein Content of Produced Milk: 2.69 weight %
Pre/Post Trial #2 (75/75/100 g/day in wk −3..−1/+1..+4/+5..+8), multiparious cows, week +7
  True Protein Content of Produced Milk: 2.64 weight %
Pre/Post Trial #2 (75/75/100 g/day in wk −3..−1/+1..+4/+5..+8), multiparious cows, week +8
  True Protein Content of Produced Milk: 2.61 weight %
Pre/Post Trial #2 (75/75/100 g/day in wk −3..−1/+1..+4/+5..+8), multiparious cows, weeks +1 through +4
  True Protein Content of Produced Milk: 3.18 weight %
Pre/Post Trial #2 (75/75/100 g/day in wk −3..−1/+1..+4/+5..+8), multiparious cows, weeks +1 through +8
  True Protein Content of Produced Milk: 2.91 weight %
Pre/Post Trial #2 (75/75/100 g/day in wk −3..−1/+1..+4/+5..+8), multiparious cows, weeks +5 through +8
  True Protein Content of Produced Milk: 2.66 weight %
Average of means of Pre-Partum Trial #2, Pre/Post Trial #1 and Pre/Post Trial #2 versus Control Trial #2, multiparious cows, weeks +1 through +4
  increase in true protein concentration in milk: 3.8%
Average of means of Pre-Partum Trial #2, Pre/Post Trial #1 and Pre/Post Trial #2 versus Control Trial #2, multiparious cows, weeks +1 through +8
  increase in true protein concentration in milk: 2.5%

Reference: patent US9179694B2, “Method and composition for enhancing milk production and milk component concentrations” (PURINA ANIMAL NUTRITION LLC, priority 2003, dated 2015)
